Ends that are not written are not given here.
Legend:
[1] = system: HepG2 cells; assay: DOX fluorescence intensity in HepG2 cytoplasm (intracellular translocation); assay type: cell-based; details: incubating time from 1 hour to 6 hours; FIG. 1B
Experimental: Besides, in order to ensure whether the cell-penetrating peptide is helpful to the translocation of DOX, after incubating for 1 to 6 hours, the DOX fluorescence intensity of in HepG2 tumor cell cytoplasm is measured and shown as FIG. 1B.
(§1) In this example, HepG2 cells are individually incubated in DOX, DOX and IL-R57F89 mixed solution, and IL-R57F89-DOX for 1 hour, and measured the fluorescence intensity as FIG. 3.

[2] = system: HepG2 cells; assay: Cell viability of HepG2 cells incubated with peptide, DOX or a mixture for 1 hour and 6 hours; assay type: cell-based; details: 25 µM peptide, 25 µM DOX or mixed solution of both; incubating for 1 hour and 6 hours; FIG. 1A
Experimental: In this example, HepG2 cells are individually incubated in 25 µM peptide solution, 25 µM DOX, and a mixed solution of 25 µM DOX and 25 µM peptide. And the cell viability of the mentioned HepG2 cells is followed after incubating for 1 hour and 6 hours.

[3] = system: HepG2 cell; assay: Cytotoxicity test on HepG2 cells, 24 hours; assay type: cell-based; details: acted on HepG2 cell for 24 hour; FIG. 10
Experimental: as §1
DOX and PEG5K-GPLGI-P17-DOX are processed cytotoxicity test.

[4] = target: T1, MMP-2 (Homo sapiens, UniProt P08253); assay: Digestion of recognizable sequence by MMP-2, followed by RPC / RP-HPLC; assay type: biochemical
T1 sequence (P08253 110-660): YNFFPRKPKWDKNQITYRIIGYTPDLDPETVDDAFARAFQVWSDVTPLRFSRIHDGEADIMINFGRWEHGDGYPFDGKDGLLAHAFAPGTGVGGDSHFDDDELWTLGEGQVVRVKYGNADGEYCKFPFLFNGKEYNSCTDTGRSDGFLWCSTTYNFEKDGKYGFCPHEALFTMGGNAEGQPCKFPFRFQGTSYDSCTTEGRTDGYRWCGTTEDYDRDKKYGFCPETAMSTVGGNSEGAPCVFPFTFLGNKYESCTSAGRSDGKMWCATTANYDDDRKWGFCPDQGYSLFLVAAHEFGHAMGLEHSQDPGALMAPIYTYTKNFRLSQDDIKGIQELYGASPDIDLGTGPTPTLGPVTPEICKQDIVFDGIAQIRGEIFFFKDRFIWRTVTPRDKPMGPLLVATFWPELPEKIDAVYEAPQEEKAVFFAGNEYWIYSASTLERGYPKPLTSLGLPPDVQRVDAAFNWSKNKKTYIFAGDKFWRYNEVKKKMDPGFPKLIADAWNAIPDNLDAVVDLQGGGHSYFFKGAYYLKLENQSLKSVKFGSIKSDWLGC
Experimental: In the experiment of employing MMP-2 to cut/digest recognizable sequence, after individually adding tryptophan (abbreviated symbol as “W”) at the C-terminus and the N-terminus of the recognizable sequence, the digestion of the recognizable sequence by MMP-2 can be followed by the character absorption wave length at 280 nm.
FIG. 4A to FIG. 4C respectively presents the reversed 1phase chromatography (RPC) analysis of 100 µM P1, P2, and P4 in Table 1 digested by 1 g/mL MMP-2. The gradient elution is 0-100% ACN, 50 min. […] Another recognizable sequence P4 with the same length as P3 and different amino acid fragments is designed.
The ILPW fragment from P4 digestion and the first four amino acid fragment of IL-R57F89 are the same. There are two MMP-2 cut-able sequences, GPLSI-P17 and GPLGI-P17, designed with the sequence individually as GPLS-ILPWRWRFFPWRR (SEQ ID NO: 11) and GPLG-ILPWRWRFFPWRR (SEQ ID NO: 10). The RP-HPLC analysis of GPLSI-P17 and GPLGI-P17 digested by MMP-2 are shown as FIG. 5A and FIG. 5B. It should be noticed that we ensure the peak of IL-R57F89 before the digestion of GPLSI-P17 and GPLGI-P17. […] Therefore, GPLSI-P17 and GPLGI-P17 can be employed as the recognizable sequence of this application.
Including providing protection to recognizable sequence-CPP, proper PEG length will not impact the anchoring of the target cell to the recognizable sequence. Therefore, we try to finger out the effect of the PEG length to the following anchoring. PEG5K-GPLSI-P17 and PEG5K-GPLGI-P17 are individually dissolved in pH 7.4 HEPES buffer. MMP-2 is added into the above solutions and the final concentration is about 1 g/mL. The solutions are independently reacted at 37° C. for 24 hours. The reaction results are analyzed by RPC and shown as FIG. 8A and FIG. 8B.

[5] = system: trypsin; assay: Protease stability test: trypsin digestion followed by RPC-UV280; assay type: in vitro ADME
From the text: It can be expected that drug carrier in vivo circulation will face to many bio-enzymes, wherein those bio-enzymes will cut the drug carrier. Before designing proper protection to those bio-enzymes, we hope to finger out the cutting result of the recognizable sequence-CPP (cell-penetrating peptide) by bio-enzymes. In this example, trypsin is employed as the bio-enzyme. Trypsin is a protease with selectivity, especially for cutting the carboxyl side of arginine (R) or lysine (K) of protein or peptide. In this example, when CPP is IL-R57F89, there are four arginine fragments in CPP being able to be cut by trypsin. Those four arginine fragments are R5, R7, R12, and R13.
FIG. 6A and FIG. 6B are respectively the RPC-UV280 spectra of IL-R57F89 and GPLSI-P17 digested by 0.1 g/mL trypsin. The gradient elution is 20-70% ACN, 5-30 min. In the spectra, there are sampling analysis results of 5, 10, 20, 30, 60, 120, and 240 min from top to bottom. […] According to this example, it can be noticed that it has to design a proper structure for keeping the recognizable sequence-CPP of drug carrier from cut by bio-enzyme(s) before the drug carrier achieving the target cell.
Subsequently, it is important to find out proper PEG length so that the PEG can provide protection to the recognizable sequence-CPP and the PEG will not impact the anchoring of the target cell to the recognizable sequence. FIG. 7B presents the trypsin digestion results of IL-R57F89, GPLSI-P17, PEG1K-GPLSI-P17, PEG2K-GPLSI-P17, PEG5K-GPLSI-P17, and PEG5K-GPLGI-P17. […] PEG1K-GPLSI-P17 is digested about 80% after 2 hours. After digesting for 4 hours, PEG2K-GPLSI-P17 and PEGSK-GPLSI-P17 are individually digested about 50% and 45%. It can be ensured that the PEG with proper length can efficiently keep the recognizable sequence-CPP from digested by bio-enzyme. And, when adjusting the PEG length with the length of the recognizable sequence-CPP, the protection of the PEG to the recognizable sequence-CPP can be optimized. For example, to those general recognizable sequence-CPP now, the proper length of PEG is about 1000-25000 Da.

[6] = after 24 hours, FIG. 4C, 5A, 5B
[7] = 0.1 g/mL trypsin, after 2 hours, FIG. 6A, 6B
[8] = 100 µM peptide, 1 g/mL MMP-2, after digesting for 2 hours, FIG. 4A, 4B

In the case of `COc1cccc2c1C(=O)c1c(O)c3c(c(O)c1C2=O)C[C@@](O)(C(=O)CO)C[C@@H]3O[C@H]1C[C@H](N)[C@H](O)[C@H](C)O1` [DOX, doxorubicin], the “DOX fluorescence intensity in HepG2 tumor cell cytoplasm, change with incubating time” value [1] is reported as “increased”, the “cytotoxicity to HepG2 cell (cell viability)” value (“cytotoxicity to HepG2 cell” for short) [2] is reported as “do not present obvious cytotoxicity” and the “cell viability of HepG2” value [3] is reported as “efficiently decrease the cell viability”.

For “GPLGI-P17: recognizable sequence-CPP GPLG-ILPWRWRFFPWRR (SEQ ID NO: 10) (GPLGILPWRWRFFPWRR; the sequence is synthesized)”, the “digestion by MMP-2” value [4, 6] was “totally digested”.

In the case of ILPWRWRFFPWRR [IL-R57F89], the digestion by trypsin [5, 7] is reported as “almost digested completely”, the digestion by trypsin ([5]; after about 1 hour, FIG. 7B) is reported as “almost digested completely” and the “cytotoxicity to HepG2 cell” value [2] is reported as “do not present obvious cytotoxicity”.

GPLSILPWRWRFFPWRR [GPLSI-P17] was tested, and the digestion by trypsin [5, 7] was “almost digested completely” and the digestion by trypsin ([5]; after about 1 hour, FIG. 7B) was “almost digested completely”.

For P1: MMP-2 cut-able sequence WGPLGIAGQW, the “digestion by MMP-2” value [4, 8] was “still can be digested by MMP-2”.

With `CC[C@H](C)[C@H](N)C(=O)N[C@@H](CC(C)C)C(=O)N1CCC[C@H]1C(=O)N[C@@H](Cc1c[nH]c2ccccc12)C(=O)N[C@@H](CCCCN)C(=O)N[C@@H](Cc1c[nH]c2ccccc12)C(=O)N1CCC[C@H]1C(=O)N[C@@H](Cc1c[nH]c2ccccc12)C(=O)N[C@@H](Cc1c[nH]c2ccccc12)C(=O)N1CCC[C@H]1C(=O)N[C@@H](Cc1c[nH]c2ccccc12)C(=O)N[C@@H](CCCNC(=N)N)C(=O)N[C@@H](CCCNC(=N)N)C(=O)O` [IL, Indolicidin] the “cytotoxicity to HepG2 cell” value [2] was “do not present obvious cytotoxicity”.

P4: MMP-2 cut-able sequence WGPLGILPW was tested, and the “digestion by MMP-2” value [4, 6] was “totally digested”.

P2: MMP-2 cut-able sequence WGPLGIAGW was tested, and the “digestion by MMP-2” value [4, 8] was “totally digested”.
